Target: thromboxane A2 receptor (TBXA2R) (Gα12) (Homo sapiens, UniProt P21731)
Assay: BRET² G protein dissociation assay, TBXA2R with Gα12
Format: cell-based
Conditions: for Mean (plotted), G protein dissociation BRET² signal: TBXA2R-G12, Fig. 5c source data
Procedure: G protein dissociation assays were performed according to the original protocols of the TRUPATH BRET² assay[47],[87] but with subtle modifications as previously described[61],[88],[89]. All reagents and cells were obtained from Thermo Fisher Scientific unless indicated otherwise. The coding sequences for the G protein biosensors[47] (Gα12-Rluc8, Gα13-Rluc8, wt Gβ3, and Gγ9-GFP), the wt GPR55, the construct used for cryo-EM (with GFP bearing a G67A mutation to disrupt fluorescence properties[48] for BRET² assays), GPR55 binding pocket mutants (G152^4.56F, G152^4.56W, N171^ECL2Q, N171^ECL2A, T176^5.33A, R253^6.62A), and the wt TBXA2R were codon-optimized for Homo sapiens, gene-synthesized, and sub-cloned into pcDNA^TM3.1(+) between NheI and HindIII restriction sites by GeneArt (Thermo Fisher Scientific). […] Freshly grown cells were washed with Dulbecco’s Balanced Salt Solution (DPBS, cat. #14200075) and detached using trypsin-ethylenediaminetetraacetic acid (trypsin-EDTA) (cat. #25300-062). Then, the cells were reconstituted to 500,000 cells per mL with fresh medium, and 1,000,000 cells were seeded into each well of a 6-well plate. After 3 h incubation at 37 °C and 5% CO2, adherent cells were transfected with 600 ng DNA (1:1:1:1 ratio of plasmid DNA for GPR55, wt Gβ3, Gγ9-GFP, and Gα12-Rluc8 or Gα13-Rluc8). Plasmid DNA was mixed with 1.5 µL Lipofectamine^TM 2000 (cat. #11668027) in Opti-MEM^TM medium (cat. #31985062) and incubated for 20 min. Then, the mixture was added to each well of the 6-well plate following 24 h incubation at 37 °C and 5% CO2. Transfected cells were washed with DPBS, detached using EDTA (Versene, cat. #15040066), and reconstituted into fresh medium at 500,000 cells mL^−1. From this suspension, 50,000 cells were seeded into each well of a white-bottom 96-well plate (Nunc^TM MicroWell^TM 96 wells, cat. #136101) following overnight incubation at 37 °C and 5% CO2. Then, the adherent cells were washed with assay medium [Hank’s balanced salt solution (HBSS, cat. #14065056) plus 20 mM HEPES pH 7.4 (cat. #15630056)] and finally reconstituted into 50 µL of the same medium. […] Methoxy e-Coelenterazine was used as luciferase substrate (Prolume Purple, NanoLight Technology, cat. #369), reconstituted at 1 mM in methanol and diluted to 37.5 µM with assay buffer (7.5 µM final assay concentration). The assay was started by the addition of 20 µL luciferase substrate to each well of the assay plate using a Multidrop^TM Combi reagent dispenser (Thermo Fisher Scientific), followed by 5 min incubation at room temperature. Then, 30 µL of agonist dilutions or DMSO control was added (final DMSO concentration 1.5%), followed by an additional 5 min incubation at room temperature. BRET² measurements were performed with a PHERAstar® FSX microplate reader (BMG LABTECH) using a BRET² filter (donor emission 370–450 nm, acceptor emission 500–530 nm) at the maximum fluorescence gain of 3600. BRET² ratios were calculated by dividing GFP emission signals from Rluc8 emission counts. Buffer-DMSO controls were subtracted from each data point to calculate ΔBRET² ratios. The half-maximal effective concentration (potency, EC50) and maximal effect (efficacy, Emax) were determined by sigmoidal dose-response curve fit with variable slope.

thromboxane A2 receptor (TBXA2R) (Gα12), sequence (P21731 whole entry, species assumed): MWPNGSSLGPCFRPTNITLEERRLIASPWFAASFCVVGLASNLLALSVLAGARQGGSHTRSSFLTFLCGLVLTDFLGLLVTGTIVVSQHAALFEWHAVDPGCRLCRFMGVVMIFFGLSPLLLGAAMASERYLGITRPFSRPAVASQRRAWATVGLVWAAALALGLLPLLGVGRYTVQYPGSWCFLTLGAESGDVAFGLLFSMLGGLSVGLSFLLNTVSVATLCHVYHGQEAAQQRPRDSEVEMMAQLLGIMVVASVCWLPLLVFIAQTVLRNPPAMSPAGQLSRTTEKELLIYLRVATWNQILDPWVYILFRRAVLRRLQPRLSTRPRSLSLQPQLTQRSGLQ
thromboxane A2 receptor (TBXA2R) (Gα12), sequence (Q03113 whole entry partner, species assumed): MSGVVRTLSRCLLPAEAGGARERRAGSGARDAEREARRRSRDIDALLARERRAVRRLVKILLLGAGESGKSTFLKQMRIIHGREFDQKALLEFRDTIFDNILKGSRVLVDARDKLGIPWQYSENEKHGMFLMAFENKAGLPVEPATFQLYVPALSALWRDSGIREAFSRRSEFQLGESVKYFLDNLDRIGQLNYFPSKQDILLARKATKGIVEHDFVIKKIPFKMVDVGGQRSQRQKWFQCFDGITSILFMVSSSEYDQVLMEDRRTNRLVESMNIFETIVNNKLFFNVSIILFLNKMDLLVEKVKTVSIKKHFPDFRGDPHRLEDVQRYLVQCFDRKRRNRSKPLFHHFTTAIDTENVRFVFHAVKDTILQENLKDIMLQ
thromboxane A2 receptor (TBXA2R) (Gα12), sequence (P16520 whole entry partner, species assumed): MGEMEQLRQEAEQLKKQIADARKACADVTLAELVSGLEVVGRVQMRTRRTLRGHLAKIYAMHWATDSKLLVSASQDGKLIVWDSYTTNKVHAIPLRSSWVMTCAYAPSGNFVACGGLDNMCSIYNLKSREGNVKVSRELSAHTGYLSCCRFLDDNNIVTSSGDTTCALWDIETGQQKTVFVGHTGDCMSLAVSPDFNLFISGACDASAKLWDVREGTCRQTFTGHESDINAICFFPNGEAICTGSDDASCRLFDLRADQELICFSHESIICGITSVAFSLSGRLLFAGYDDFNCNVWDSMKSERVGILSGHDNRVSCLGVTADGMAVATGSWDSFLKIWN
thromboxane A2 receptor (TBXA2R) (Gα12), sequence (O14610 1-66 partner limits assumed, species assumed): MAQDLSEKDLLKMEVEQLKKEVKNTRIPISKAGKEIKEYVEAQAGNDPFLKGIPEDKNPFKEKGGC

Mean (plotted), G protein dissociation BRET² signal (concentration 300 pM) | Mean (plotted), G protein dissociation BRET² signal (concentration 1e-9 M) | Mean (plotted), G protein dissociation BRET² signal (concentration 3e-9 M) | Mean (plotted), G protein dissociation BRET² signal (concentration 1e-8 M) | Mean (plotted), G protein dissociation BRET² signal (concentration 3e-8 M) | Mean (plotted), G protein dissociation BRET² signal (concentration 1e-7 M) | Mean (plotted), G protein dissociation BRET² signal (concentration 3e-7 M) | Mean (plotted), G protein dissociation BRET² signal (concentration 1e-6 M) | Mean (plotted), G protein dissociation BRET² signal (concentration 3e-6 M) | Mean (plotted), G protein dissociation BRET² signal (concentration 1e-5 M) | Mean (plotted), G protein dissociation BRET² signal (concentration 3e-5 M) | Efficacy ± SEM (%) (TBXA2, Gα12) | pEC50 ± SEM (TBXA2, Gα12) | EC50 (TBXA2R via Gα12, read-out: potency (EC50)) [nM] | Mean (plotted), G protein dissociation BRET² signal (concentration 10 pM) | Mean (plotted), G protein dissociation BRET² signal (concentration 30 pM) | Mean (plotted), G protein dissociation BRET² signal (concentration 100 pM) | Compound
0.004412 | 0.004455 | 0.002143 | 0.001783 | 0.001091 | -3.229e-5 | 0.0009853 | 0.004147 | 0.0053 | 0.009359 | 0.007653 |  |  |  |  |  |  | Cc1cccc(N2CCN(C(=O)c3cc(S(=O)(=O)N(C)C)ccc3N3CCCC3)CC2)c1C [ML184, 3-[[4-(2,3-dimethylphenyl)-1-piperazinyl]carbonyl]-N,N-dimethyl-4-(1-pyrrolidinyl)benzenesulfonamide]
-0.007 | -0.0104 | -0.01228 | -0.02818 | -0.04678 | -0.06592 | -0.07783 | -0.08315 |  |  |  | 100 ± 8 | 7.62 ± 0.15 | 24 | 0.003425 | 0.003325 | -0.00015 | CCCCC[C@H](O)/C=C/[C@@H]1[C@@H](C/C=C\CCCC(=O)O)[C@H]2CO[C@@H]1C2 [U-46619]

Source: paper PMC11861906, “Structural basis for lipid-mediated activation of G protein-coupled receptor GPR55” (Nature Communications, 2025)
